Measured values reported in ChEMBL document CHEMBL1201862, “PubChem BioAssay data set” (2004).
The source made the active and inactive calls.

Key:
[1] = target: T1, Heat shock factor protein 1 (Mus musculus, UniProt P38532); assay: enhancement of HSF1-driven luciferase signal – cell-based, NIH3T3, luminescence, dose retest, confirmation (AID 435004); assay type: functional;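 note: stress induced by proteasome inhibitor MG132 added 30 min after compound; luciferase reporter driven by HSF1 response element in NIH3T3 cells; actives raise luminescence as potentiators of the MG132 stress response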
T1 sequence (P38532 whole entry): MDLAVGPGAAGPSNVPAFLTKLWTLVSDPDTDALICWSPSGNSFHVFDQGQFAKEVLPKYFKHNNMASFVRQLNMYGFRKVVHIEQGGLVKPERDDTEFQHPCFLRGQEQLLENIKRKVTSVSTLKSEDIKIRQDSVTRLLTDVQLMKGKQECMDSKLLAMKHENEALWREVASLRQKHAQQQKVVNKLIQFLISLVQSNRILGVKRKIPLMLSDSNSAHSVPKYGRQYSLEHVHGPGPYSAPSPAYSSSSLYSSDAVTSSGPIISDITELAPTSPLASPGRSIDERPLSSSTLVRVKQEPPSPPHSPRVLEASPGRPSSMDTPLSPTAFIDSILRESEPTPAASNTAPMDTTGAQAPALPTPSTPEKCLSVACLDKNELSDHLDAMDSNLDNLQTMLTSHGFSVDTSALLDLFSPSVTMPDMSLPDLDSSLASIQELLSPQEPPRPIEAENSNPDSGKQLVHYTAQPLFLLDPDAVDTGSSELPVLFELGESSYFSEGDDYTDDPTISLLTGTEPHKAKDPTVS

Prothrombin = Prothrombin (Homo sapiens, UniProt P00734); assay: Thrombin 1536 HTS Dose Response Confirmation. [Related pubchem assays: 1046 (Thrombin 1536 HTS; hits were confirmed in this assay)]; assay type: functional
[2] = microbe, parasite or virus in culture; assay type: functional; conditions: Mycobacterium tuberculosis
[3] = viability of PTEN-deleted HCT116 cells – cell-based, HCT116 PTEN knockout, dose response (AID 1047); assay type: functional;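 note: HCT116 colon tumor cells with PTEN knocked out; cells exposed to compound for 60 hours before readout; potency for loss of cell viability measured by luminescence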
[4] = viability of HCT116 lacking mutant beta-catenin – cell-based, human colon tumor, dose response (AID 1045); assay type: functional;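 note: HCT116 colon tumor cells with beta catenin knocked out; cells exposed to compound for 60 hours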
[5] = target: T2, Microphthalmia-associated transcription factor (Homo sapiens, UniProt O75030); assay: reducers of TRPM1 reporter luminescence, concentration series – cell-based, SK-MEL-5, cherry-picked, set 3, MITF inhibitor project, dose response (AID 493073); assay type: functional;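 note: SK-MEL-5 melanoma cells with luciferase driven by the MITF target TRPM1 promoter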
T2 sequence (O75030 whole entry): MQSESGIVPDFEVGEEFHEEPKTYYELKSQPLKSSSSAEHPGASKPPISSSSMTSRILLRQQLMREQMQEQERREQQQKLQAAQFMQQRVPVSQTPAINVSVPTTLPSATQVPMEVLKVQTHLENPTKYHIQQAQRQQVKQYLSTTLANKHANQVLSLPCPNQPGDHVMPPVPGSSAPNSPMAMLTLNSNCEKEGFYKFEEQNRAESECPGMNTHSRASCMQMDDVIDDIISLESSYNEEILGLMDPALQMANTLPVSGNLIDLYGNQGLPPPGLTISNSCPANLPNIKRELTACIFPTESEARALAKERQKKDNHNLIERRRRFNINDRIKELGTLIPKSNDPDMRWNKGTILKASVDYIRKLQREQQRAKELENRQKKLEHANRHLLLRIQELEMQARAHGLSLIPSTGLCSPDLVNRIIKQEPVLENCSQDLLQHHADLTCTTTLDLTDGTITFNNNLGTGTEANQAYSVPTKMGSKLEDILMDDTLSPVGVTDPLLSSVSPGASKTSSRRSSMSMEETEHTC

[6] = target: T3, Replicative DNA helicase DnaB (Mycobacterium tuberculosis, UniProt P9WMR3); assay: DnaB intein splicing inhibitors, dose response, biochemical, cell-free fluorescence (AID 449749); assay type: functional
T3 sequence (P9WMR3 whole entry): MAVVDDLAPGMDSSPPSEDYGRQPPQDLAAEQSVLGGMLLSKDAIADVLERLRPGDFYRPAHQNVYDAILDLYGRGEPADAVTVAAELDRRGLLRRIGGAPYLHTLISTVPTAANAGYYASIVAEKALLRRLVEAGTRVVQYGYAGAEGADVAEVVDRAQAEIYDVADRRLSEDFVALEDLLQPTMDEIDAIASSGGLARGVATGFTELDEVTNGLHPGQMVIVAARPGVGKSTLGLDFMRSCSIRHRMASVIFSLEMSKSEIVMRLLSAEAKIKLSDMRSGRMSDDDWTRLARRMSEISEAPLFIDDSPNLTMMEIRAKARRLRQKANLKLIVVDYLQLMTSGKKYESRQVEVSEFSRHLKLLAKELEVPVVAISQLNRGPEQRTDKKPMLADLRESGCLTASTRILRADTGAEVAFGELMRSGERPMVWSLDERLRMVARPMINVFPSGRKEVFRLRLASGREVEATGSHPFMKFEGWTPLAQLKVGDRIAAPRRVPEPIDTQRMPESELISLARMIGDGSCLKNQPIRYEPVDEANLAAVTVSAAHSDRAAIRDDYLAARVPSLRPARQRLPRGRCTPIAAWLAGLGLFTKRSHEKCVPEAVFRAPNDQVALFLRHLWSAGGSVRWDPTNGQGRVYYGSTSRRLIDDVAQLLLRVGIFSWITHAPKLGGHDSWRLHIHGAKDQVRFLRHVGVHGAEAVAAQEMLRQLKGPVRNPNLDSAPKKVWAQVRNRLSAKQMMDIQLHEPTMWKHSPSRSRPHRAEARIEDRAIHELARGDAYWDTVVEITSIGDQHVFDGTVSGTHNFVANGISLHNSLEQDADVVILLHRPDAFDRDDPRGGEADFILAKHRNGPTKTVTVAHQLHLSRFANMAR

INS1 = assay: INS-1E survival protection against cytokine death – cell-based, luminescence, retest, dose response (AID 449756); assay type: functional; conditions: Rattus norvegicus;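 note: cell death triggered by IL-1 beta plus TNF-alpha plus IFN-gamma mixture; protective hits raise ATP signal compared with cytokine alone wells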
Protein RecA = target: T4, Protein RecA (Mycobacterium tuberculosis, UniProt P9WHJ3); assay: Fluorescence Cell-Free Homogeneous Dose Retest to Identify Inhibitors of RecA-Intein Splicing Activity. [Related pubchem assays (depositor defined):AID2097, AID2223, AID489010, AID492950]; assay type: functional
T4 sequence (P9WHJ3 whole entry): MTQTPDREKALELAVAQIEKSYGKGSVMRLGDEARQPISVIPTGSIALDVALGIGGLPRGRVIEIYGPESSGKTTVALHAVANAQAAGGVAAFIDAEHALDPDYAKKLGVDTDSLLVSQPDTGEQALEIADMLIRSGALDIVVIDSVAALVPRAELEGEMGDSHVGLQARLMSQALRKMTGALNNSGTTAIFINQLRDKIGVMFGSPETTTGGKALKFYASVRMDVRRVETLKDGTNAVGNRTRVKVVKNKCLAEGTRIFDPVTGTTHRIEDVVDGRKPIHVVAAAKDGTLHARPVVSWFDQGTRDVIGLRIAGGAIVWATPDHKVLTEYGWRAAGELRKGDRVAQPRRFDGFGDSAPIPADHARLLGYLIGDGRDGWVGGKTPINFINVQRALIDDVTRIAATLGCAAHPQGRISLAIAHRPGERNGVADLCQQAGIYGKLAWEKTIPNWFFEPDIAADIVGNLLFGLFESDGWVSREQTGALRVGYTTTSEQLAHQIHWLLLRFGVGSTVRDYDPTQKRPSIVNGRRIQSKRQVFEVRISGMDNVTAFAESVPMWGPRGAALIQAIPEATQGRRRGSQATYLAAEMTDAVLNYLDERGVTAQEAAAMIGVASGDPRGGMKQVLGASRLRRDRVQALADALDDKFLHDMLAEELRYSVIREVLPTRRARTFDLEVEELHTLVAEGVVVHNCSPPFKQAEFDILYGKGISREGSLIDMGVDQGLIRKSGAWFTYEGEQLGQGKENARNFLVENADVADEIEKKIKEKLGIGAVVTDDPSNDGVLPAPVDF

[7] = reduction of Shn3 3'UTR-driven luciferase in osteoblasts – cell-based, Clone20 osteoblasts, firefly luciferase, cherry-picked, dose response (AID 624132); assay type: functional;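 note: firefly luciferase luminescence from reporter carrying the Shn3 3'UTR in osteoblasts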
[8] = loss of viability in HepG2 cells – cell-based, CellTiter-Glo, cherry-picked, cytotoxicity control for Shn3 inhibitor project, dose response (AID 624134); assay type: functional
[9] = non-specific 3'UTR reporter inhibition in Clone20-Shn3RL – cell-based, Renilla luciferase, cherry-picked, counter-screen for Shn3 inhibitor project, dose response (AID 624133); assay type: functional
[10] = target: T5, Ubiquitin-conjugating enzyme E2 N (Homo sapiens, UniProt P61088); assay type: functional;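 note: Dose-response confirmation in a TR-FRET assay detecting UBC13-driven polyubiquitin chain formation, inhibition measured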
T5 sequence (P61088 whole entry): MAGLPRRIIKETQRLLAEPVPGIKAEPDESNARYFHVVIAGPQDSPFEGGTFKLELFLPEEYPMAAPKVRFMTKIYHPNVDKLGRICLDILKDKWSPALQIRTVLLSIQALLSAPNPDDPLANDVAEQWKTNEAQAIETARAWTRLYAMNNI

[11] = HPDE-C7 pancreatic duct cell viability loss – fluorescence, HTS (AID 430); assay type: functional, cell-based; conditions: Homo sapiens
[12] = viability loss of HPDE-C7K cells – cell-based, fluorescence, HTS, primary screen (AID 431); assay type: functional; conditions: Homo sapiens

With C=C(CCC(=O)c1ccccc1)C(=O)c1ccccc1 the EC50 [1] was 15 µM (active), the IC50 (Prothrombin) was > 50 µM (not active) and the CC50 [2] was 17.7 µM (active). The EC50 [3] was 9.9 µM (active) and the EC50 [4] was 8.26 µM (active).

For Cc1cc(NS(=O)(=O)c2ccc(NC(=O)CSc3nnc(-c4ccco4)n3N)cc2)nc(C)n1, the IC50 (Prothrombin) was > 50 µM (not active).

With O=C(N/N=C/c1ccc([N+](=O)[O-])o1)c1ccc(O)cc1 [NIFUROXAZIDE] the AC50 [5] was 5.2 µM (active), the AC50 [6] was > 380 µM (inactive) and the AC50 (INS1) was 5.18 µM (active). For the same molecule, the EC50 (Protein RecA) was > 380 µM (inactive).

In the case of O=C(Nc1ccc(Cc2ccncc2)cc1)c1ccco1, the IC50 (Prothrombin) is reported as > 50 µM (not active).

In the case of c1ccc(-c2cc3nc(NCC4CC4)nc(NCC4CCCCC4)c3s2)cc1, the AC50 [7] is reported as 2.67 µM (active), the AC50 [8] is reported as 9.15 µM (active) and the AC50 [9] is reported as 3.12 µM (active).

With O=C(NCC1CCCCC1)C1(CC2CC(c3cccc(Br)c3)=NO2)CCNCC1 (configuration not stated) the AC50 [5] was 18.1 µM (active) and the IC50 [10] was > 20 µM (inactive).

For COC(=O)[C@]1(C)CCC[C@@]2(C)C3CC[C@@]4(C)C[C@]3(CCC21)CC(=O)N4Cc1ccc(OC)cc1 (some centres not stated), the AC50 [7] was 8.16 µM (active), the AC50 [8] was > 70 µM (inactive) and the AC50 [9] was 10.6 µM (active).

In the case of O=C(c1cc2ccccc2[nH]1)N1CCOCC1, the IC50 (Prothrombin) is reported as > 50 µM (not active).

For O=C1C=C(NCc2ccc(Cl)c(Cl)c2)CC1, the EC50 [11] was > 20 µM (not active) and the EC50 [12] was > 20 µM (not active).
